The values that follow come from paper PMC5834809 (Cancer Science, 2018).

For orientation: Tmax means the time from dosing to the highest level.

For data set [1], the system named is Japanese women with HR+ ABC. The following applies: first‐line therapy; cited from earlier work.
The test system of data set [2] is Japanese postmenopausal patients with ER+/HER2− advanced breast cancer. Briefly: Exposure to study drugs and dose modifications. It is filed as in vivo, human. The following applies: for Median average duration of dose interruption (range): during total cycles.
In data set [3] the test system is non‐Japanese postmenopausal women with ER+ and HER2− ABC. The following applies: PALOMA‐1; letrozole 2.5 mg QD alone or with palbociclib 125 mg QD 3/1 schedule; cited from earlier work.
In data set [4] the test system is postmenopausal women with ER+/HER2− ABC. The following applies: PALOMA‐2; letrozole with or without palbociclib (3/1 schedule); cited from earlier work.
The subject of data set [5] is patients with advanced solid tumors refractory to standard therapy. The following applies: single‐agent, Japanese patients, phase I part 1; cited from earlier work.
Data set [6] is described as follows: Plasma palbociclib steady-state pharmacokinetics. It is filed as in vivo, human.

Consider `CC(C)(C#N)c1cc(Cn2cncn2)cc(C(C)(C)C#N)c1` [anastrozole], for which the “Median time to progression” value in data set [1] was “approximately 12 months”.
For the compound `C=C1C[C@@H]2[C@H](CC[C@]3(C)C(=O)CC[C@@H]23)[C@@]2(C)C=CC(=O)C=C12` [exemestane], the “Median time to progression” value in data set [1] is “approximately 12 months”.
`N#Cc1ccc(C(c2ccc(C#N)cc2)n2cncn2)cc1` [letrozole]: in data set [2] (N = 42), the Cycle delay is listed as 8 (19.0) n (%) and the Dose interruption is reported as 30 (71.4) n (%). In addition, in data set [2], the “Median average duration of dose interruption (range)” value is reported as 1.0 (1.0‐24.5) d. In data set [2] (in vivo), the “Median average duration of cycle delay (range)” value was 7 (5‐47) d and the “Median time to first dose interruption (range)” value was 107 (5‐404) d. For the same compound, the “Median PFS” value in data set [3] was 10.2 months. Also, in data set [4], the “Median PFS” value is on record as 14.5 months.
`CC(=O)c1c(C)c2cnc(Nc3ccc(N4CCNCC4)cn3)nc2n(C2CCCC2)c1=O` [palbociclib]: in data set [2] (N = 42), the Cycle delay was 39 (92.9) n (%), the Dose interruption is recorded as 35 (83.3) n (%) and the “≥1 dose reduction” value is listed as 25 (59.5) n (%). The “Median average duration of dose interruption (range)” value in data set [2] is on record as 5.5 (1.0‐8.5) d. Moreover, in data set [2] (in vivo), the “Median average duration of cycle delay (range)” value is listed as 7 (5‐47) d; the “Median time to dose reduction (range), first dose reduction” value is given as 64 (29‐232) d; the “Median time to dose reduction (range), second dose reduction” value was 114 (64‐415) d; the “Median time to first dose interruption (range)” value is recorded as 15 (5‐124) d. For the same compound, in data set [2] (maximum dose reduction, N = 42), the “Patients with a dose reduction to 75 mg” value is given as 8 (19.0) n (%) and the “Patients with a dose reduction to 100 mg” value is listed as 17 (40.5) n (%). In addition, in data set [5], the Maximum tolerated dose is recorded as 125 mg. The Tmax in data set [6] (human, plasma, oral) is 4.9 h. Besides, the “Ctrough, predose concentration on cycle 2/day 15” value in data set [6] (with letrozole, N = 30, geometric mean (geometric %CV)) is reported as 86.8 (40) ng/mL. The “Ctrough, predose concentration on cycle 1/day 15” value in data set [6] (with letrozole, N = 32, geometric mean (geometric %CV)) was 89.4 (44) ng/mL. In addition, the “Ctrough, predose concentration on day 15, cycles 1 and 2” value in data set [6] (with letrozole, N = 38, geometric mean of within‐patient mean Ctrough (geometric %CV)) is on record as 90.1 (42) ng/mL.
